Experimental data: ChEMBL document CHEMBL2046294, “Lipo-γ-AApeptides as a new class of potent and broad-spectrum antimicrobial agents” (J Med Chem, 2012)
Values after ≈ are worked out from the molar mass of the structure shown. Active and inactive are the calls of the source. The rule behind the calls is not given here.

Legend:
[1] = test system: Escherichia coli; assay: Antibacterial activity against Escherichia coli JM109 after 24 hrs by broth micro-dilution method; format: functional; settings: JM109, 24 h
[2] = test system: Klebsiella pneumoniae; assay: Antibacterial activity against Klebsiella pneumoniae ATCC 13383 after 24 hrs by broth micro-dilution method; format: functional; settings: ATCC 13383, 24 h
[3] = test system: Pseudomonas aeruginosa; assay: Antibacterial activity against multidrug-resistant Pseudomonas aeruginosa ATCC 27853 after 24 hrs by broth micro-dilution method; format: functional; settings: ATCC 27853, 24 h
[4] = test system: Bacillus subtilis; assay: Antibacterial activity against Bacillus subtilis BR151 after 24 hrs by broth micro-dilution method; format: functional; settings: BR151, 24 h
[5] = test system: Staphylococcus epidermidis; assay: Antibacterial activity against multidrug-resistant Staphylococcus epidermidis RP62A after 24 hrs by broth micro-dilution method; format: functional
[6] = test system: Enterococcus faecalis; assay: Antibacterial activity against vancomycin-resistant Enterococcus faecalis ATCC 700802 after 24 hrs by broth micro-dilution method; format: functional; settings: ATCC 700802, 24 h
[7] = test system: Staphylococcus aureus; assay: Antibacterial activity against methicillin-resistant Staphylococcus aureus ATCC 33592 after 24 hrs by broth micro-dilution method; format: functional; settings: ATCC 33592, 24 h
[8] = test system: Candida albicans; assay: Antifungal activity against Candida albicans ATCC 10231 after 48 hrs by broth micro-dilution method; format: functional; settings: ATCC 10231, 48 h
[9] = Toxicity in human RBC assessed as hemolysis after 1 hr; format: cell-based, Erythrocyte; settings: for HC10: erythrocyte, 1 h; for HC50 at 1 h: red blood cells
[10] = Selectivity ratio of HC50 for human RBC to MIC for methicillin-resistant Staphylococcus aureus ATCC 33592; format: functional
[11] = test system: Escherichia coli; assay: Antibacterial activity against Escherichia coli JM109 assessed as membrane disruption at 10 ug/ml after 2 hrs by DAPI staining-based fluorescence microscopic analysis; format: functional, organism-based
[12] = test system: Escherichia coli; assay: Antibacterial activity against Escherichia coli JM109 assessed as membrane disruption at 10 ug/ml after 2 hrs by propidium iodide staining-based fluorescence microscopic analysis; format: functional, organism-based
[13] = test system: Bacillus subtilis; assay: Antibacterial activity against Bacillus subtilis BR151 assessed as membrane disruption at 10 ug/ml after 2 hrs by DAPI staining-based fluorescence microscopic analysis; format: functional, organism-based
[14] = test system: Bacillus subtilis; assay: Antibacterial activity against Bacillus subtilis BR151 assessed as membrane disruption at 10 ug/ml after 2 hrs by propidium iodide staining-based fluorescence microscopic analysis; format: functional, organism-based
[15] = test system: Escherichia coli; assay: Antibacterial activity against Escherichia coli JM109 assessed as loss membrane potential at 10 ug/ml; format: functional, organism-based
[16] = test system: Bacillus subtilis; assay: Antibacterial activity against Bacillus subtilis BR151 assessed as loss membrane potential at 10 ug/ml; format: functional, organism-based
[17] = test system: Staphylococcus aureus; assay: Antibacterial activity against methicillin-resistant Staphylococcus aureus ATCC 33592 assessed as lipid membrane depolarization after 10 mins by DiSC3-5 staining-based fluorescence analysis; format: functional, organism-based

SMILES: CC(C)C[C@@H](CN(CC(=O)N[C@@H](CCCCN)CN(CC(N)=O)C(=O)CCc1ccccc1)C(=O)CCc1ccccc1)NC(=O)CN(C[C@H](CCCCN)NC(=O)CN(C[C@H](CCCCN)NC(=O)CN(C[C@H](CC(C)C)NC(=O)CN(C[C@H](CCCCN)NC(=O)CN(C[C@@H](N)CCCCN)C(=O)CCc1ccccc1)C(=O)CCc1ccccc1)C(=O)CCc1ccccc1)C(=O)CCc1ccccc1)C(=O)CCc1ccccc1
- MIC [1]: 3 µg/mL (≈ 1.42 µM)
- MIC [2]: 5 µg/mL (≈ 2.37 µM)
- MIC [3]: > 50 µg/mL
- MIC [4]: 2 µg/mL (≈ 0.947 µM)
- MIC [5]: 5 µg/mL (≈ 2.37 µM)
- MIC [6]: 5 µg/mL (≈ 2.37 µM)
- MIC [7]: 5 µg/mL (≈ 2.37 µM)
- MIC [8]: 8 µg/mL (≈ 3.79 µM)
- HC10 [9]: 75 µg/mL
- HC50 at 1 h [9]: 300 µg/mL
- Ratio [10]: 60

SMILES: CCCCCCCC/C=C\CCCCCCCC(=O)N[C@@H](C)CN(CC(=O)N[C@@H](C)CN(CC(=O)N[C@@H](CC(C)C)CN(CC(=O)N[C@@H](CC(C)C)CN(CC(=O)N[C@@H](CC(C)C)CN(CC(N)=O)C(=O)CCCN)C(=O)CCCN)C(=O)CCCN)C(C)=O)C(C)=O
- MIC [1]: 3 µg/mL (≈ 2.28 µM)
- MIC [2]: 3 µg/mL (≈ 2.28 µM)
- MIC [3]: 3 µg/mL (≈ 2.28 µM)
- MIC [4]: 3 µg/mL (≈ 2.28 µM)
- MIC [5]: 3 µg/mL (≈ 2.28 µM)
- MIC [6]: 4 µg/mL (≈ 3.04 µM)
- MIC [7]: 3 µg/mL (≈ 2.28 µM)
- MIC [8]: 3 µg/mL (≈ 2.28 µM)
- HC10 [9]: 100 µg/mL
- HC50 at 1 h [9]: > 500 µg/mL
- Ratio [10]: > 167
- Activity [11]: Active
- Activity [12]: Active
- Activity [13]: Active
- Activity [14]: Active
- Activity [15]: Active
- Activity [16]: Active
- Activity [17]: Active

SMILES: CCCCCCCCCCCCCCCC(=O)N[C@@H](CCCCN)CN(CC(=O)N[C@@H](CCCCN)CN(CC(=O)N[C@@H](CCCCN)CN(CC(N)=O)C(=O)CCCN)C(=O)CCCN)C(=O)CCCN
- MIC [1]: 20 µg/mL (≈ 19.5 µM)
- MIC [2]: > 50 µg/mL
- MIC [3]: 15 µg/mL (≈ 14.6 µM)
- MIC [4]: 1.5 µg/mL (≈ 1.46 µM)
- MIC [5]: 2 µg/mL (≈ 1.95 µM)
- MIC [6]: 10 µg/mL (≈ 9.76 µM)
- MIC [7]: 5 µg/mL (≈ 4.88 µM)
- MIC [8]: 2 µg/mL (≈ 1.95 µM)
- HC10 [9]: 300 µg/mL
- HC50 at 1 h [9]: > 500 µg/mL
- Ratio [10]: > 100
- Activity [17]: Active

SMILES: CCCCCCCCCCCCCCCC(=O)N[C@@H](CCCCN)CN(CC(N)=O)C(=O)CCCN
- MIC [1]: 2.5 µg/mL (≈ 4.88 µM)
- MIC [2]: 35 µg/mL (≈ 68.4 µM)
- MIC [3]: 10 µg/mL (≈ 19.5 µM)
- MIC [4]: 1.5 µg/mL (≈ 2.93 µM)
- MIC [5]: 2 µg/mL (≈ 3.91 µM)
- MIC [6]: 2.5 µg/mL (≈ 4.88 µM)
- MIC [7]: 2.5 µg/mL (≈ 4.88 µM)
- MIC [8]: 2 µg/mL (≈ 3.91 µM)
- HC10 [9]: 25 µg/mL
- HC50 at 1 h [9]: 40 µg/mL
- Ratio [10]: 16
- Activity [17]: Active

SMILES: CCCCCCCCCCCCCCCC(=O)N[C@@H](CCCCN)CN(CC(=O)N[C@@H](CCCCN)CN(CC(N)=O)C(=O)CCCN)C(=O)CCCN
- MIC [1]: 30 µg/mL (≈ 39.1 µM)
- MIC [2]: 20 µg/mL (≈ 26 µM)
- MIC [3]: 20 µg/mL (≈ 26 µM)
- MIC [4]: 1.5 µg/mL (≈ 1.95 µM)
- MIC [5]: 2.5 µg/mL (≈ 3.25 µM)
- MIC [6]: 8 µg/mL (≈ 10.4 µM)
- MIC [7]: 5 µg/mL (≈ 6.51 µM)
- MIC [8]: 2 µg/mL (≈ 2.6 µM)
- HC10 [9]: 40 µg/mL
- HC50 at 1 h [9]: 300 µg/mL
- Ratio [10]: 60
- Activity [17]: Active

SMILES: CCCCCCCC/C=C\CCCCCCCC(=O)N[C@@H](CCCCN)C(=O)N[C@@H](CCCCN)CN(CC(N)=O)C(=O)CCCN
- MIC [1]: 10 µg/mL (≈ 15 µM)
- MIC [2]: 40 µg/mL (≈ 60.1 µM)
- MIC [3]: 15 µg/mL (≈ 22.5 µM)
- MIC [4]: 2 µg/mL (≈ 3 µM)
- MIC [5]: 2 µg/mL (≈ 3 µM)
- MIC [6]: 2.5 µg/mL (≈ 3.75 µM)
- MIC [7]: 5 µg/mL (≈ 7.51 µM)
- MIC [8]: 5 µg/mL (≈ 7.51 µM)
- HC10 [9]: 80 µg/mL
- HC50 at 1 h [9]: > 500 µg/mL
- Ratio [10]: > 100
- Activity [17]: Active

SMILES: CCCCCCCCCCCCCCCC(=O)N[C@@H](C)CN(CC(=O)N[C@@H](C)CN(CC(=O)N[C@@H](CCCCN)CN(CC(=O)N[C@@H](CCCCN)CN(CC(=O)N[C@@H](CCCCN)CN(CC(N)=O)C(=O)CCCN)C(=O)CCCN)C(=O)CCCN)C(C)=O)C(C)=O
- MIC [1]: 2.5 µg/mL (≈ 1.87 µM)
- MIC [2]: 15 µg/mL (≈ 11.2 µM)
- MIC [3]: 15 µg/mL (≈ 11.2 µM)
- MIC [4]: 2.5 µg/mL (≈ 1.87 µM)
- MIC [5]: 10 µg/mL (≈ 7.48 µM)
- MIC [6]: 10 µg/mL (≈ 7.48 µM)
- MIC [7]: 10 µg/mL (≈ 7.48 µM)
- MIC [8]: 7.5 µg/mL (≈ 5.61 µM)
- HC10 [9]: 200 µg/mL
- HC50 at 1 h [9]: > 500 µg/mL
- Ratio [10]: > 50
- Activity [17]: Active
